pIC50: −log10 of the molar value. Like-named read-outs stand apart in the source and are kept apart here.
Key:
SK-BR-3 tumor cells = assay: In vitro proliferation inhibitory activity of compounds of Formula (GH) on SK-BR-3 tumor cells (CCK8); assay type: cell-based; conditions: Homo sapiens, SK-BR-3, 72 h, 3 days of culture, read-out: IC50 for inhibiting proliferation of SK-BR-3 cells in vitro
Description: The objective of this experiment is to detect the in vitro killing activity of the compound of Formula (GH) of the present disclosure on SK-BR-3 tumor cells (human breast cancer cells, Wuhan Procell, Catalog No. CL-0211). The cells were treated with different concentrations of the compound in vitro. After 3 days of culture, the number of viable cells was detected using CCK8 (Cell Counting Kit-8, Catalog No. TS547) reagents, and the in vitro activity of the test compound was evaluated according to the IC50 value.
Taking the test method of in vitro killing activity on SK-BR-3 cells as an example, the following test was performed. […] After the cells were completely digested, 10 mL of cell culture medium containing 2% FBS was added to wash out the digested cells, centrifugation was performed at 300 g for 5 min, the supernatant was discarded, and then 10 to 20 mL of cell culture medium containing 2% FBS was added to resuspend the cells to prepare a single cell suspension. • (3) Cell plating: The SK-BR-3 single cell suspension was mixed well, the viable cell density was adjusted to 6×10^4 cells/mL with the cell culture medium containing 2% FBS, the cell suspension after density adjustment was mixed well, and added to a 96-well cell culture plate at 100 μL/well. Only 200 μL of PBS was added to the peripheral wells of the 96-well plate. The culture plate was incubated in an incubator for 24 hours (37° C., 5% CO2). • (4) Compound preparation: The compound was dissolved in DMSO (dimethyl sulfoxide, SIGMA) to prepare a 2 mM stock solution.
The starting concentrations of small molecule compounds and Dxd were both 600 nM, and the preparation method was as follows.
Then, 315 μL of different samples to be tested were added to the first column of a 96-well U-bottomed drug distribution plate, and the sample concentration was 1200 nM; 210 μL of the cell culture medium containing 2% FBS was added to each well of the second to tenth columns. 105 μL of the sample was taken from the first column and added to the 210 μL cell culture medium in the second column and mixed well, and 105 μL was taken and added to the third column, and so on to the tenth column. • (5) Sample loading operation: 100 μL of the sample to be tested of different concentrations was added to the culture plate, and two replicate wells were set for each sample. The culture plate was incubated in an incubator for 3 days (37° C., 5% CO2). • (6) Color development operation: The 96-well cell culture plate was taken out, the cell culture supernatant was removed by tapping, 100 μL of the RPMI 1640 basal medium (without FBS) containing 10% CCK8 was added, and then it was incubated in an incubator for about 1.5 hours (37° C., 5% CO2). • (7) Plate reading operation: The 96-well cell culture plate was taken out, placed in an ELISA reader (MD SpectraMax i3X), and A450 was determined by the ELISA reader. • (8) Data analysis: Microsoft Excel and Graphpad Prism 5 were used to process and analyze the data.

NCI-N87 tumor cells = assay: In vitro proliferation inhibitory activity of compounds of Formula (GH) on NCI-N87 tumor cells (CCK8); assay type: cell-based, human; conditions: 6 days of culture, CCK8, read-out: IC50 for inhibiting proliferation of NCI-N87 cells in vitro
Description: The objective of this experiment is to detect the in vitro killing activity of the compound of Formula (GH) disclosed in the present invention on NCI-N87 tumor cells (human gastric cancer cells, Cell Resource Center, Institute of Basic Medicine, Chinese Academy of Medical Sciences, Catalog No. 3111C0001CCC000481). The cells were treated with different concentrations of the compound in vitro, and after 6 days of culture, the number of viable cells was detected using CCK8 (Cell Counting Kit-8, Catalog No. TS547) reagents, and the in vitro activity of the test compound was evaluated according to the IC50 value.
• (1) Cell culture: NCI-N87 cells were cultured in the RPMI 1640 medium containing 2% FBS (Shanghai BasalMedia Technologies Co., Ltd., Catalog No. L210KJ). • (2) Cell preparation: NCI-N87 cells in the logarithmic growth phase were taken, washed once with PBS (phosphate buffered saline, Shanghai BasalMedia Technologies Co., Ltd., Catalog No. E211004), added with 1 mL of trypsin (0.25% Trypsin-EDTA (1×), Shanghai BasalMedia Technologies Co., Ltd., Catalog No. A121002) to allow digestion for 2 to 3 minutes. After the cells were completely digested, 10 mL of the cell culture medium was added to wash off and obtain the digested cells, centrifugation was performed at 300 times gravitational acceleration (g) for 5 min, the supernatant was discarded, then 10 mL of PBS was added to wash the cells once, centrifugation was performed at 300 times gravitational acceleration (g) for 5 minutes, the supernatant was discarded, and 10 mL of the cell culture medium containing 2% FBS was added to resuspend the cells to prepare a single cell suspension. • (3) Cell plating: The NCI-N87 single cell suspension was mixed, the density of live cells was adjusted to 3×10^4 cells/mL with 2% FBS cell culture medium, the cell suspension after density adjustment was mixed well, and added to a 96-well cell culture plate at 100 μL/well. Only 200 μL of PBS was added to each of the peripheral wells of the 96-well plate. The plate was incubated in an incubator for 24 hours (37° C., 5% CO2). • (4) Preparation of sample to be tested:
The sample to be tested was diluted to 3200 nM with cell culture medium containing 2% FBS, then 300 μL of the sample was added to the first well of a 96-well U-bottomed plate with a sample concentration of 3200 nM; and 210 μL of cell culture medium containing 2% FBS was added to each well of the second to tenth columns. 70 μL of the sample was taken from the first column and added to the 210 μL cell culture medium in the second column and mixed well, 70 μL was taken and added to the third column, and so on to the ninth column. • (5) Sample loading operation: 100 μL of the sample to be tested with different concentrations was added to the culture plate, two replicate wells were set for each sample. The culture plate was incubated in an incubator for 6 days (37° C., 5% CO2). • (6) Color development operation: The 96-well cell culture plate was taken out, the supernatant of the culture medium was removed by tapping, 100 μL of 10% CCK8 (prepared with RPMI 1640 basal culture medium, without FBS) solution was added to each well, and incubation was performed in an incubator for 2 hours. • (7) Plate reading operation: The 96-well cell culture plate was taken out, placed in an ELISA reader (SpectraMax i3X), and A450 was determined by the ELISA reader. • (8) Data analysis: Microsoft Excel and Graphpad Prism 5 were used to process and analyze the data.

With `Cc1c(F)cc2nc3c(c4c2c1CC[C@H]4NC(=O)CO)Cn1c-3cc2c(c1=O)COC(=O)[C@]2(O)CC1CC1` [Compound 1-A, N-((1R,9S)-9-(cyclopropylmethyl)-5-fluoro-9-hydroxy-4-methyl-10,13-dioxo-2,3,9,10,13,15-hexahydro-1H,12H-benzo[de]pyrano[3′,4′:6,7]indolizino[1,2-b]quinolin-1-yl)-2-hydroxyacetamide] the pIC50 (SK-BR-3 tumor cells) was 9.03.

In the case of `Cc1c(F)cc2nc3c(c4c2c1CC[C@@H]4NC(=O)CO)Cn1c-3cc2c(c1=O)COC(=O)[C@]2(O)CC1CC1` [Compound 1-B, N-((1S,9S)-9-(cyclopropylmethyl)-5-fluoro-9-hydroxy-4-methyl-10,13-dioxo-2,3,9,10,13,15-hexahydro-1H,12H-benzo[de]pyrano[3′,4′:6,7]indolizino[1,2-b]quinolin-1-yl)-2-hydroxyacetamide], the pIC50 (SK-BR-3 tumor cells) was 8.71 and the pIC50 (NCI-N87 tumor cells; Homo sapiens, NCI-N87) was 8.27.

`Cc1c(F)cc2nc3c(c4c2c1CC[C@@H]4NC(=O)[C@H](C)O)Cn1c-3cc2c(c1=O)COC(=O)[C@]2(O)CC1CC1` [Compound 2-A, (S)-N-((1S,9S)-9-(Cyclopropylmethyl)-5-fluoro-9-hydroxy-4-methyl-10,13-dioxo-2,3,9,10,13,15-hexahydro-1H,12H-benzo[de]pyrano[3′,4′:6,7]indolizino[1,2-b]quinolin-1-yl)-2-hydroxypropanamide] gave a pIC50 (SK-BR-3 tumor cells) of 8.23 and a pIC50 (NCI-N87 tumor cells; Homo sapiens, NCI-N87) of 8.72.

With `Cc1c(F)cc2nc3c(c4c2c1CC[C@H]4NC(=O)[C@H](C)O)Cn1c-3cc2c(c1=O)COC(=O)[C@]2(O)CC1CC1` [Compound 2-B, (S)-N-((1R,9S)-9-(Cyclopropylmethyl)-5-fluoro-9-hydroxy-4-methyl-10,13-dioxo-2,3,9,10,13,15-hexahydro-1H,12H-benzo[de]pyrano[3′,4′:6,7]indolizino[1,2-b]quinolin-1-yl)-2-hydroxypropanamide] the pIC50 (SK-BR-3 tumor cells) was 7.92.

`Cc1c(F)cc2nc3c(c4c2c1CC[C@@H]4NC(=O)[C@@H](C)O)Cn1c-3cc2c(c1=O)COC(=O)[C@]2(O)CC1CC1` [Compound 3-A, (R)-N-((1S,9S)-9-(cyclopropylmethyl)-5-fluoro-9-hydroxy-4-methyl-10,13-dioxo-2,3,9,10,13,15-hexahydro-1H,12H-benzo[de]pyrano[3′,4′:6,7]indolizino[1,2-b]quinolin-1-yl)-2-hydroxypropanamide] gave a pIC50 (SK-BR-3 tumor cells) of 8.23 and a pIC50 (NCI-N87 tumor cells; Homo sapiens, NCI-N87) of 8.28.

With `Cc1c(F)cc2nc3c(c4c2c1CC[C@H]4NC(=O)[C@@H](C)O)Cn1c-3cc2c(c1=O)COC(=O)[C@]2(O)CC1CC1` [Compound 3-B, (R)-N-((1R,9S)-9-(cyclopropylmethyl)-5-fluoro-9-hydroxy-4-methyl-10,13-dioxo-2,3,9,10,13,15-hexahydro-1H,12H-benzo[de]pyrano[3′,4′:6,7]indolizino[1,2-b]quinolin-1-yl)-2-hydroxypropanamide] the pIC50 (SK-BR-3 tumor cells) was 8.63.

In the case of `Cc1c(F)cc2nc3c(c4c2c1CC[C@H]4NC(=O)[C@@H](O)C1CC1)Cn1c-3cc2c(c1=O)COC(=O)[C@]2(O)CC1CC1` [Compound 4-B, (S)-2-cyclopropyl-N-((1R,9S)-9-(cyclopropylmethyl)-5-fluoro-9-hydroxy-4-methyl-10,13-dioxo-2,3,9,10,13,15-hexahydro-1H,12H-benzo[de]pyrano[3′,4′:6,7]indolizino[1,2-b]quinolin-1-yl)-2-hydroxyacetamide], the pIC50 (SK-BR-3 tumor cells) was 8.30.

`Cc1c(F)cc2nc3c(c4c2c1CC[C@@H]4NC(=O)[C@H](O)C1CC1)Cn1c-3cc2c(c1=O)COC(=O)[C@]2(O)CC1CC1` [Compound 5-A, (R)-2-Cyclopropyl-N-((1S,9S)-9-(cyclopropylmethyl)-5-fluoro-9-hydroxy-4-methyl-10,13-dioxo-2,3,9,10,13,15-hexahydro-1H,12H-benzo[de]pyrano[3′,4′:6,7]indolizino[1,2-b]quinolin-1-yl)-2-hydroxyacetamide] showed a pIC50 (SK-BR-3 tumor cells) of 8.03.

Work on `CC[C@@]1(O)C(=O)OCc2c1cc1n(c2=O)Cc2c-1nc1cc(F)c3c(c1c2CNC(=O)CO)CCC3` [Compound 24, (S)-N-((8-ethyl-4-fluoro-8-hydroxy-9,12-dioxo-2,3,8,9,12,14-hexahydro-1H,11H-cyclopenta[f]pyrano[3′,4′:6,7]indolizino[1,2-b]quinolin-15-yl)methyl)-2-hydroxyacetamide] yielded a pIC50 (SK-BR-3 tumor cells) of 8.24.

For `CC[C@@]1(O)C(=O)OCc2c1cc1n(c2=O)Cc2c-1nc1cc(F)c3c(c1c2CNC(=O)[C@@H](C)O)CCC3` [Compound 26, (R)-N-(((S)-8-Ethyl-4-fluoro-8-hydroxy-9,12-dioxo-2,3,8,9,12,14-hexahydro-1H,11H-cyclopenta[f]pyrano[3′,4′:6,7]indolizino[1,2-b]quinolin-15-yl)methyl)-2-hydroxypropanamide], the pIC50 (SK-BR-3 tumor cells) was 8.08.

`CC[C@@]1(O)C(=O)OCc2c1cc1n(c2=O)Cc2c-1nc1cc(F)c3c(c1c2CNC(=O)[C@@H](O)C1CC1)CCC3` [Compound 27, (S)-2-Cyclopropyl-N-(((S)-8-ethyl-4-fluoro-8-hydroxy-9,12-dioxo-2,3,8,9,12,14-hexahydro-1H,11H-cyclopenta[f]pyrano[3′,4′:6,7]indolizino[1,2-b]quinolin-15-yl)methyl)-2-hydroxyacetamide] gave a pIC50 (SK-BR-3 tumor cells) of 7.86.

Work on `CC[C@@]1(O)C(=O)OCc2c1cc1n(c2=O)Cc2c-1nc1cc(F)c3c(c1c2CNC(=O)[C@H](O)C1CC1)CCC3` [Compound 28, (R)-2-Cyclopropyl-N-(((S)-8-ethyl-4-fluoro-8-hydroxy-9,12-dioxo-2,3,8,9,12,14-hexahydro-1H,11H-cyclopenta[f]pyrano[3′,4′:6,7]indolizino[1,2-b]quinolin-15-yl)methyl)-2-hydroxyacetamide] yielded a pIC50 (SK-BR-3 tumor cells) of 7.82.

For `CC[C@@]1(O)C(=O)OCc2c1cc1n(c2=O)Cc2c-1nc1cc(F)c(C)c3c1c2[C@@H](NC(=O)CO)CC3` [Dxd, reference compound], the pIC50 (NCI-N87 tumor cells) was 7.99.

From US20260184721A2, “FUSED RING COMPOUND, CONJUGATE THEREOF AND USE THEREOF” (Keymed Biosciences (Chengdu) Co., Ltd., priority 2022, published 2026)
